Assays:
[1] = Dynamic surface tension of aqueous solutions, maximum bubble pressure method; assay type: physicochemical; settings: for γ at 0.1 wt %, 0.1 b/s / γ at 0.1 wt %, 1 b/s / γ at 0.1 wt %, 6 b/s / γ at 0.1 wt %, 20 b/s: 0.1 wt % in distilled water; for γ limiting, 0.1 b/s / γ limiting, 1 b/s / γ limiting, 6 b/s / γ limiting, 20 b/s: saturated solution made using 1.0 wt % in water
Source text: Dynamic surface tension data were obtained for the soluble portion of these samples using the maximum bubble pressure method at bubble rates from 0.1 bubbles/sec (b/s) to 20 b/s.
The relative efficiency of surface tension reduction can be obtained by comparing surface tension reduction of solutions containing the same amount of different surfactants. Such data are given for 0.1 wt % solutions of the foam control agents at 0.1, 1, 6 and 20 bubbles/second (b/s). The limiting surface tensions at 0.1, 1, 6 and 20 b/s represent the lowest surface tensions in water which can be achieved at the given surface creation rates for a given surfactant regardless of the amount of surfactant used and is used to evaluate the effectiveness of a surfactant. In most cases the limiting surface tension was taken at 1.0 wt % since the foam control agent was insoluble at this concentration. In the case where the foam control agent was soluble at 1.0 wt %, the limiting surface tension was taken at 5.0 wt % (where the samples were insoluble). These values give information about the relative ability to a surfactant to reduce surface defects under near-equilibrium conditions (0.1 b/s) through very dynamic conditions (20 b/s).

[2] = Foam test of DOSS solutions with added foam control agent (based on ASTM D 1173-53); assay type: physicochemical; settings: 0.1 wt % foam control agent added to 0.1 wt % DOSS in water; for Initial foam height: ambient temperature
Source text: Dioctyl sodium sulfosuccinate (DOSS) is a commonly used surfactant in waterborne compositions. DOSS is capable of forming stable foams when dissolved in water. The foam control characteristics of various foam control agents may be assessed by measuring the foam generated by a 0.1 wt % aqueous solution of DOSS and comparing this to the foam generated after the addition of foam control agent to a 0.1 wt % DOSS solution. The DOSS utilized in these measurements was an Aerosol OT 75% surfactant obtained from Cytec Industries. The foaming and foam stability of DOSS were measured using a procedure based upon ASTM D 1173-53 at ambient temperature, typically 23° C.
In these tests, an aqueous solution of DOSS or the filtrate from the DOSS/foam control agent mixture is added from an elevated foam pipette to a foam receiver containing the same solution. The foam height is measured at the completion of the addition (“Initial Foam Height”) and the time required for the foam to dissipate at the air-liquid interface (“Time to 0 Foam”) is recorded. This test provides a comparison between the foaming characteristics of various aqueous compositions. The results for the foam control agents prepared in Examples 1-28 are reported in Table 1 along with comparative data for a 0.1 wt % solution of DOSS with no added foam control agent (Example 29).

SMILES | γ at 0.1 wt %, 0.1 b/s [1] | γ at 0.1 wt %, 1 b/s [1] | γ at 0.1 wt %, 6 b/s [1] | γ at 0.1 wt %, 20 b/s [1] | γ limiting, 0.1 b/s [1] | γ limiting, 1 b/s [1] | γ limiting, 6 b/s [1] | γ limiting, 20 b/s [1] | Foam height after 1 min [2] | Foam height after 10 min [2] | Initial foam height [2]
CCCCOCC(O)CNCCCOCCOCCOCCCN (stereo not drawn) [DAPDEG/1 BGE] | 50.3 dyne/cm | 54.1 dyne/cm | 56.7 dyne/cm | 61.0 dyne/cm | 36.4 dyne/cm | 40.3 dyne/cm | 42.9 dyne/cm | 45.7 dyne/cm | 0.8 cm | 0.2 cm | 1.7 cm
CCCCOCC(O)CNC1CCC(CC2CCC(N)CC2)CC1 (mixture of isomers) [PACM/1 BGE] | 44.7 dyne/cm | 47.0 dyne/cm | 50.3 dyne/cm | 55.2 dyne/cm | 43.5 dyne/cm | 44.5 dyne/cm | 46.2 dyne/cm | 48.7 dyne/cm | 0 cm | 0 cm | 2.3 cm
CCCCOCC(O)CN(CCCOCCOCCOCCCN(CC(O)COCCCC)CC(O)COCCCC)CC(O)COCCCC (stereo not drawn) [DAPDEG/4 BGE] | 37.4 dyne/cm | 38.9 dyne/cm | 42.0 dyne/cm | 50.7 dyne/cm | 34.2 dyne/cm | 34.5 dyne/cm | 35.5 dyne/cm | 39.1 dyne/cm | 1.2 cm | 0.2 cm | 2.3 cm

Reference: US6746623B2, “Alkyl glycidyl ether-capped diamine foam controlling agent” (Air Products and Chemicals, Inc., priority 2002, dated 2004)
